Test results from US8785499B2 (priority 2009, dated 2014).
≈ marks a conversion by molar mass, not a printed value.

Key:
B. subtilis 168 = experiment: microbe, parasite or virus in culture; type: cell-based; details: Bacillus subtilis, 168, read-out: MIC50 B. subt
[1] = test system: E. coli K-12 BW25113 (ΔnadA); experiment: microbe, parasite or virus in culture; type: cell-based, Escherichia coli; details: for MIC50: Escherichia coli, BW25113, read-out: MIC50 E. coli
B. anthracis sterne = experiment: microbe, parasite or virus in culture; type: cell-based; details: Bacillus anthracis, read-out: MIC50 B. anth
[2] = test system: E. coli ΔnadA, nadD+ (overexpressing NadD); experiment: Antibacterial assay: on-target versus off-target activity (NadD overexpression vs gapA control); type: cell-based, Escherichia coli; details: E. coli overexpressing nadD vs gapA control strain
ecNadD [3] = biological target: T1, ecNadD (Escherichia coli (strain K12), UniProt P0A752); experiment: biochemical; details: apparent value
baNadD = baNadD (Bacillus anthracis, UniProt C3L5T6); experiment: biochemical; type: biochemical; details: for inhibition at 50 µM: read-out: INHIBITION (%) B. anthracis
ecNadD [4] = biological target: T1, ecNadD; experiment: biochemical; type: biochemical

baNadD, sequence (C3L5T6 whole entry, looked up): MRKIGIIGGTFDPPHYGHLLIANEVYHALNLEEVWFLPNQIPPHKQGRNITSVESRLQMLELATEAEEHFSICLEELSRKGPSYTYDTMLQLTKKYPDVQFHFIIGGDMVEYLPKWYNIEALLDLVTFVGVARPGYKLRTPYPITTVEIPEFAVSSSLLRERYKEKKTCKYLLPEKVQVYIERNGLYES

Row | Structure (SMILES) | MIC50 (B. subtilis 168) | MIC50 [1] | MIC50 (B. anthracis sterne) | […]. anthracis (baNadD) | […]. coli (ecNadD [4]) | also measured
1 | Nc1c(C(=O)Nc2ccc(Cl)cc2F)sc2nc(-c3cccs3)ccc12 [03_15] | 10 µM (≈ 4.04 µg/mL) | 160 µM (≈ 64.6 µg/mL) | 10 µM (≈ 4.04 µg/mL) |  |  | effect of NadD overexpression on antibacterial activity (on-target vs off-target) [2]: partially or totally suppresses action
2 | O=C(CCC(=O)Nc1cccc(Cl)c1)N/N=C/c1c2ccccc2cc2ccccc12 [01_02] |  | > 80 µM |  |  |  | Ki (ecNadD [3]; substrate ATP varied, 0.5 mM NaMN fixed): 5 ± 1 µM; Ki (ecNadD [3]; substrate NaMN varied, 0.5 mM ATP fixed): 8 ± 3 µM
3 | COC(=O)c1ccc(N/C=C2\C(=O)Nc3ccccc32)cc1 [15_11] | < 50 µM | < 100 µM |  |  |  | 
4 | Nc1c(C(=O)Nc2cccc(F)c2)sc2nc(-c3cccs3)ccc12 [03_02] | 40 µM (≈ 14.8 µg/mL) | 160 µM (≈ 59.1 µg/mL) | 80 µM (≈ 29.6 µg/mL) |  |  | inhibition at 50 µM (baNadD): 100%
5 | Nc1c(C(=O)Nc2ccc(F)cc2Cl)sc2nc(-c3ccc(F)cc3)ccc12 [03_23] | 80 µM (≈ 33.3 µg/mL) | 40 µM (≈ 16.6 µg/mL) | 80 µM (≈ 33.3 µg/mL) |  |  | antibacterial activity against E. coli (qualitative) [1]: relatively strong antibacterial activity
6 | Nc1c(C(=O)Nc2cccc(Cl)c2)sc2nc(-c3ccncc3)ccc12 [03_17] | > 160 µM | 80 µM (≈ 30.5 µg/mL) | > 160 µM |  |  | inhibition at 50 µM (baNadD): 64%
7 | Nc1c(C(=O)Nc2cc(Cl)ccc2Cl)sc2nc(-c3cccs3)ccc12 [03_05] | 10 µM (≈ 4.2 µg/mL) | 80 µM (≈ 33.6 µg/mL) | 10 µM (≈ 4.2 µg/mL) |  |  | 
8 | O=C(CCCC(=O)Nc1ccc(Br)cc1)N/N=C/c1c2ccccc2cc2ccccc12 [01_03] | 10 µM (≈ 4.88 µg/mL) | > 80 µM | 15 µM (≈ 7.33 µg/mL) |  |  | effect of NadD overexpression on antibacterial activity (on-target vs off-target) [2]: partially or totally suppresses action
9 | N#CCc1ccc(NC(=O)/C=C/c2ccc([N+](=O)[O-])o2)cc1 [compound 233] |  |  |  | 8% | 0% | 
10 | NS(=O)(=O)c1ccc(NC(=O)c2cc3cc(Br)ccc3oc2=O)cc1 [compound 050] |  |  |  | 38% | 16% | 
11 | O=C(NCc1ccccc1)Nc1ccc2nsnc2c1 [compound 124] |  |  |  | 0% | 7% | 
12 | O=C(N/N=C/c1ccccc1Cl)c1cccnc1 [compound 202] |  |  |  | 32% | 0% | 
13 | O=C1Nc2ccccc2/C1=C/Nc1ccc(Br)cc1F [compound 015] |  |  |  |  |  | IC50 (baNadD; IC50 baNadD): 16 µM; inhibition at 50 µM (baNadD): 57%; IC50 (ecNadD [4]; IC50 ecNadD): 30 µM; inhibition at 100 µM (ecNadD [4]; read-out: INHIBITION (%) E. coli): 29%
14 | O=C(CSS(=O)(=O)O)NCCc1c[nH]c2ccccc12 [compound 072] |  |  |  | 0% | 12% | 
